According to patent publication US20200383985A1, “Inhibitors of Protease Activated Receptor-2” (Endosome Therapeutics, Inc., priority 2017, published 2020):

Tests used:
colonic afferent neurons = experiment: Colonic afferent recordings, CVH mice (28 d post-TNBS); parameters: species or system mouse
Procedure: Transient colitis in mice induces hypersensitivity of colonic afferent neurons that persists after inflammation is resolved (Azpiroz F., et al., Neurogastroenterol Motil. 2007, 19(1 Suppl): 62-88). This chronic visceral hypersensitivity (CVH) may mimic post-infectious/inflammatory IBS. To determine whether proteases can further amplify CVH, mice were treated with trinitrobenzene sulphonic acid (TNBS, enema) to induce colitis. At 28 d post-TNBS, when inflammation is undetectable, mechanical stimulation of the colon induced a larger firing rate in CVH mice than in HC mice, consistent with chronic hyperexcitability (FIG. 21A-D). […] Thus, proteases can still amplify the excitability of colonic nociceptors even when they are already sensitized as a result of prior inflammation. The colon and rectum (5-6 cm) was removed from C57BL/6 mice. Afferent recordings were made from splanchnic nerves as described (Hughes, P. A. et al., Gut 2009, 58(10): 1333-134; Brierley, S. M. et al., Gastroenterology 2004, 127(1): 166-178). Briefly, the intestine was opened and pinned flat, mucosal side up, in an organ bath. […] Action potentials were analyzed using the Spike 2 […] function and discriminated as single units on the basis of distinguishable waveform, amplitude and duration. […]

PAR2-RLuc8/βARR2-YFP = molecular target: T1, PAR2-RLuc8/βARR2-YFP (Homo sapiens, UniProt P55085); experiment: BRET assay of βARR2 recruitment in DRG neurons; assay type: cell-based; conditions: mouse DRG neurons
T1 construct: expressed in transfected cells; host or cells: mouse (C57BL/6) DRG neurons, nucleofection
T1 sequence (P55085 26-397): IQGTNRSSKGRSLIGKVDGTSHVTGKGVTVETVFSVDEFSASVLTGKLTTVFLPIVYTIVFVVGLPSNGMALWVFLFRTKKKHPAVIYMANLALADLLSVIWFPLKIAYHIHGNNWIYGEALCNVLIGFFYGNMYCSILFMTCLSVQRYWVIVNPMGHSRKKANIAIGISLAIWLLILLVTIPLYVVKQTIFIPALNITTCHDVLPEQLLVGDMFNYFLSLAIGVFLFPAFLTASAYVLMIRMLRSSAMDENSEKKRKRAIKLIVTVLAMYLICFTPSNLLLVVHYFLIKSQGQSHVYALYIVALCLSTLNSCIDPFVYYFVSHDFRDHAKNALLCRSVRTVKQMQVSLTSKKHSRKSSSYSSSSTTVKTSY
Procedure: To assess endocytosis of PAR2 in nociceptors, mouse (m) PAR2-GFP was transfected in to mouse DRG neurons. In vehicle-treated neurons, mPAR2-GFP was detected at the plasma membrane and in intracellular compartments that may correspond to stores of PAR2 in the Golgi apparatus (FIG. 4A) (Jensen D. D., et al. J Biol Chem. 2016, 291(21): 11285-11299). Trypsin, but not NE or CS (100 nM, 30 min), induced mPAR2-GFP endocytosis (FIG. 4A, B). Dy4, but not Dy4 inact, inhibited trypsin-induced endocytosis of mPAR2-GFP (FIG. 4C). To determine whether PAR2 recruits βARRs, which mediate endocytosis, Bioluminescence Resonance Energy Transfer (BRET) sensors were expressed for PAR2-RLuc8 (donor) and βARR2-YFP (acceptor) in mouse DRG neurons. Trypsin, but not NE or CS, increased PAR2-RLuc8/βARR2-YFP BRET (FIG. 4D).
DRG were collected from C57BL/6 mice and Sprague-Dawley rats (all levels). […]
Mouse DRG neurons were equilibrated in HBSS-HEPES (30 min, 37° C.), and incubated with the Renilla luciferase substrate coelenterazine h (NanoLight Technologies) (5 μM, 5 min). BRET ratios were measured at 475±30 nm and 535±30 nm using a CLARIOstar Monochronometer Microplate Reader (BMG LabTech) before and after challenge with trypsin (10 nM), NE (100 nM) or CS (100 nM). Data are presented as a BRET ratio, calculated as the ratio of YFP to RLuc8 signals, and normalized to the baseline average. […]

Substance	further amplification of responses compared to basal, CVH mice (colonic afferent neurons)	PAR2-RLuc8/βARR2-YFP BRET (PAR2-RLuc8/βARR2-YFP)
NE: protease (elastase) activating PAR2 by biased mechanisms	30.6±9.0%	not
trypsin	16.4±7.9%	increased
